In one assay the test system is Daudi. As to the kind of experiment: Cell growth test (Cell Titer Blue) Daudi. The assay is classed as cell-based. The settings on record: Homo sapiens, 72 h, Lymphoma, 3 days. Here is the method:
(§1) Moreover, the compound of Example 14 was subjected to a cell growth test using various types of cell lines.
(§2) All cell lines other than the below-noticed cells were each seeded in a well plate, in which an RPMI-1640 medium supplemented with penicillin/streptomycin and FBS with a final concentration of 10% was placed. The human prostate cancer cell line VCaP (ATCC) was seeded in a well plate, in which DMEM medium supplemented with penicillin/streptomycin and FBS with a final concentration of 10% was placed. […] Thereafter, using Enspire Multimode Plate Reader (PerkinElmer), the amount of fluorescence at an excitation wavelength of 531 nm and a fluorescence wavelength of 615 nm was measured. Since the amount of fluorescence is in proportion to the concentration of a florescent product resorufin that is converted from resazurin as a redox dye by living cells, the amount of fluorescence was used as an indicator of the number of living cells. The growth inhibition percentage of the test compound in each concentration was calculated according to the following equation. Growth inhibition percentage (%)=(amount of fluorescence in test compound−added well)/(amount of fluorescence in DMSO−added well)×100 […]

The subject of another assay is HCT-15. As to the kind of experiment: Cell growth test (Cell Titer Blue) HCT-15. The settings on record: Homo sapiens, 72 h, HCT-15, Colon cancer, 3 days. Type of assay: cell-based. Here is the method: as §1, §2
Background: The colour change of resazurin is a common sign of viable cells or microbes.

The subject of the next assay is MDA-MB-231. As to the kind of experiment: Cell growth test (Cell Titer Blue) MDA-MB-231. Type of assay: cell-based. As to conditions: Homo sapiens, 72 h, MDA-MB-231, Breast cancer, 3 days. Here is the method:
as §1, §2

For the next assay, the system named is KG-1. As to the kind of experiment: Cell growth test (Cell Titer Blue) KG-1. The settings on record: Homo sapiens, 72 h, KG-1, Acute myeloid leukemia, 3 days. The assay is classed as cell-based. Here is the method:
as §1, §2

A further assay relates to PC-3. Put plainly: Cell growth test (Cell Titer Blue) PC-3. Type of assay: cell-based. As to conditions: Homo sapiens, 72 h, PC-3, Prostate cancer, 3 days. As to the method:
as §1, §2

The subject of a further assay is SU-DHL-4. As to the kind of experiment: Cell growth test (Cell Titer Blue) SU-DHL-4. As to conditions: Homo sapiens, 72 h, SU-DHL-4, Lymphoma, 3 days. Type of assay: cell-based. Here is the method: as §1, §2
Another assay concerns BxPC-3. Put plainly: Cell growth test (Cell Titer Blue) BxPC-3. The assay is classed as cell-based. As to conditions: Homo sapiens, 72 h, BxPC-3, Pancreatic cancer, 3 days. Here is the method: as §1, §2
Assay [1] has as its system human prostate cancer cell line VCaP. Put plainly: Cell growth test (Cell Titer Blue) VCaP. The assay is classed as cell-based. The settings on record: 72 h, 3 days. Here is the method: as §1, §2
The test system of assay [2] is c-Myc gene. Put plainly: Expression of c-Myc gene in MV4-11 cells, RT-PCR. Type of assay: cell-based, human. As to conditions: MV4-11 cells, 10, 30 or 100 nmol/L, 6 hours. As to the method:
A fluctuation in the expression of c-Myc, IL-7R and HEXIM1 genes in MV4-11 (ATCC) cells treated with the test compound was analyzed according to a reverse transcription polymerase chain reaction (RT-PCR) method.
MV4-11 cells were cultured for 6 hours in an RPMI-1640 medium supplemented with penicillin/streptomycin and FBS with a final concentration of 10%, to which the compound of Example 14 was added to a concentration of 10 nmol/L, 30 nmol/L or 100 nmol/L. On the other hand, a non-treatment group (Non-treatment) was established by culturing MV4-11 cells for 6 hours in the above-described medium, to which the compound of Example 14 was not added. Using Rneasy (registered trademark) (Qiagen), RNA was extracted from the above-described MV4-11 cells in accordance with the instruction manual included with the aforementioned device. […] Thereafter, a PCR reaction was carried out for 40 cycles (a cycle consisting of 95° C.-5 seconds and 60° C.-30 seconds.) Subsequently, the obtained reaction product was measured.
As a housekeeping gene, the expression level of GAPDH (Glyceraldehyde 3-phosphate dehydrogenase) was also evaluated. The ratio of the expression level of the mRNA of each of c-Myc, IL-7R and HEXIM1 to the expression level of GAPDH was calculated, and the expression level of each gene (relative expression level) was then quantified. […]

Assay [3] has as its system c-Myc gene. As to the kind of experiment: Intratumoral expression of c-Myc gene in MV4-11-subcutaneously-transplanted cancer-bearing mouse models, RT-PCR. Type of assay: in vivo. The settings on record: 30 mg/kg. Here is the method: According to an RT-PCR method, a fluctuation in the intratumoral expression of a c-Myc gene in MV4-11-subcutaneously-transplanted cancer-bearing mouse models, to which a test compound had been administered, was analyzed.
The compound of Example 14 was dissolved in a solvent (a 0.5% methyl cellulose aqueous solution or water containing 1 equivalent of hydrochloric acid), and the obtained solution was then orally administered to the mice at a dose of 30 mg/kg. As a negative control, a solvent administration group (vehicle) involving administration of a 0.5% methyl cellulose aqueous solution was established. Moreover, the test compound was dissolved in a solvent (a normal saline containing 1 equivalent of hydrochloric acid), and the obtained solution was then intravenously administered to the mice at a dose of 30 mg/kg. As a negative control, a solvent administration group (vehicle) involving administration of a normal saline was established. From MV4-11-subcutaneously-transplanted cancer-bearing mice involving oral or intravenous administration of the test compound, tumor was excised 1, 3, 6 and 24 hours (hr) after the administration. […] A PCR reaction was carried out by the same method as that of Test Example 5, and a fluctuation in the gene expression of GAPDH and c-Myc in the tumor was then evaluated.

As a reminder, the GI50 is the concentration that inhibits growth by half.

Take `CCn1c(=O)cc(C2CCN(C)CC2)c2cc(C(=O)N(C)c3ccc(C)cc3)ccc21` [Example 14, 1-Ethyl-N-methyl-N-(4-methylphenyl)-4-(1-methylpiperidin-4-yl)-2-oxo-1,2-dihydroquinoline-6-carboxamide]: the GI50 in the assay on Daudi was found to be 165 nM; with HCT-15 it was 505 nM; in the assay on MDA-MB-231 it was 85 nM; in the assay with KG-1 it was 57 nM; with PC-3, 175 nM; in the assay with SU-DHL-4, 49 nM. Besides, the figures for the GI50 (in the assay with BxPC-3; in [1]) were 2550 nM and 361 nM, respectively. Further, in the assay on c-Myc gene [2], the “mRNA expression of c-Myc (GAPDH correction)” value is “decreased in a compound concentration-dependent manner”. The “intratumoral expression of the c-Myc gene” value in the assay with c-Myc gene [3] (intravenously, tumor excised 1, 3, 6 and 24 hr after administration (FIG. 4)) is recorded as “decreased”; in the assay with c-Myc gene [3] (orally, tumor excised 1, 3, 6 and 24 hr after administration (FIG. 5)) it was “decreased”.

(Values after patent publication US10987349B2, “Antitumor agent and bromodomain inhibitor” (FUJIFILM Corporation, priority 2016, dated 2021).)
